Source: patent publication US10918713B2, “Epitopes from allergen proteins and methods and uses for immune response modulation” (LA JOLLA INSTITUTE FOR ALLERGY AND IMMUNOLOGY, priority 2012, dated 2021)
Several values for one entry are separate records, joined by “and”; a condition that tells them apart may be missing. Equal entries are not always repeated.

Tests used:
Assay type in all cases: cell-based, human
[1] = test system: PBMC from allergic donors; assay: IL-5 ELISPOT with extract-stimulated short-term lines; conditions: positive donor/peptide response
Description: (§1) Spots were counted by computer-assisted image analysis (Zeiss, KS-ELISPOT reader, Munich, Germany).
(§2) Each assay was performed in triplicate. The level of statistical significance was determined with a Student's t-test using the mean of triplicate values of the response against relevant pools or individual peptides versus the response against the DMSO control.

[2] = test system: PBMC from allergic donors; assay: IFN-γ ELISPOT with extract-stimulated short-term lines; conditions: positive donor/peptide response
Description: as §1, §2

[3] = test system: PBMC from allergic donors; assay: Dual ELISPOT, total IL-5 and IFN-γ response (SFC); conditions: sum of IFNg and IL-5
Description: as §1, §2

| Compound | Response (SFC/10^6) IL-5 ([1]; each table line is one donor) | Response (SFC/10^6) IFNg ([2]; each table line is one donor) | Response (SFC/10^6) Total ([3]; each table line is one donor) | Response (SFC/10^6) IL-5 ([1]; one donor per table line) | Response (SFC/10^6) IFNg ([2]; one donor per table line) | Response (SFC/10^6) Total ([3]; one donor per table line) |
| --- | --- | --- | --- | --- | --- | --- |
| CC[C@H](C)[C@H](NC(=O)[C@H](CC(N)=O)NC(=O)[C@H](CC(C)C)NC(=O)[C@@H](NC(=O)[C@H](CC(C)C)NC(=O)[C@@H](NC(=O)[C@H](CCCCN)NC(=O)[C@H](C)NC(=O)[C@H](CC(=O)O)NC(=O)[C@@H](N)CO)[C@@H](C)O)C(C)C)C(=O)N[C@@H](CCCCN)C(=O)N[C@@H](Cc1ccc(O)cc1)C(=O)N[C@H](C(=O)N[C@@H](CCCNC(=N)N)C(=O)N1CCC[C@H]1C(=O)O)[C@@H](C)O [3324.1142] | 227 SFC/10^6 and 147 SFC/10^6 and 1547 SFC/10^6 | 150 SFC/10^6 | 227 SFC/10^6 and 147 SFC/10^6 and 1697 SFC/10^6 |  |  |  |
| CC[C@H](C)[C@H](NC(=O)[C@@H](NC(=O)[C@H](CCCNC(=N)N)NC(=O)[C@H](CC(C)C)NC(=O)[C@H](C)NC(=O)[C@H](CCC(=O)O)NC(=O)[C@@H](NC(=O)[C@H](CC(C)C)NC(=O)[C@@H](NC(=O)[C@H](C)NC(=O)[C@@H](NC(=O)[C@H](Cc1ccc(O)cc1)NC(=O)[C@H](C)NC(=O)[C@@H](N)CC(=O)O)C(C)C)[C@@H](C)O)[C@@H](C)O)C(C)C)C(=O)N[C@@H](C)C(=O)O [3324.1167] | 410 SFC/10^6 and 1743 SFC/10^6 | 1017 SFC/10^6 | 1427 SFC/10^6 and 1743 SFC/10^6 |  |  |  |
| CC[C@H](C)[C@H](NC(=O)[C@H](CCCCN)NC(=O)[C@H](CCC(=O)O)NC(=O)[C@@H](NC(=O)[C@@H](N)CC(C)C)[C@@H](C)CC)C(=O)N[C@@H](CC(N)=O)C(=O)N[C@@H](C)C(=O)NCC(=O)N[C@@H](Cc1ccccc1)C(=O)N[C@@H](CCCCN)C(=O)N[C@@H](C)C(=O)N[C@@H](C)C(=O)N[C@H](C(=O)N[C@@H](C)C(=O)N[C@@H](C)C(=O)O)C(C)C [3324.1175] | 900 SFC/10^6 and 1202 SFC/10^6 and 263 SFC/10^6 | 960 SFC/10^6 | 1860 SFC/10^6 and 1202 SFC/10^6 and 263 SFC/10^6 |  |  |  |
| C[C@H](NC(=O)[C@@H](NC(=O)[C@H](C)NC(=O)[C@H](C)NC(=O)[C@H](C)NC(=O)[C@@H]1CCCN1C(=O)[C@@H](NC(=O)[C@H](C)NC(=O)[C@@H](NC(=O)[C@H](C)NC(=O)[C@H](Cc1ccc(O)cc1)NC(=O)[C@H](C)NC(=O)[C@H](C)NC(=O)[C@H](C)NC(=O)[C@@H]1CCCN1)[C@@H](C)O)[C@@H](C)O)[C@@H](C)O)C(=O)O [3324.1184] | 1637 SFC/10^6 | 58 SFC/10^6 | 58 SFC/10^6 and 1637 SFC/10^6 |  |  |  |
| CC[C@H](C)[C@H](NC(=O)[C@H](Cc1ccccc1)NC(=O)[C@H](C)NC(=O)[C@@H](N)CC(=O)O)C(=O)N[C@@H](C)C(=O)N[C@@H](C)C(=O)N[C@@H](CC(C)C)C(=O)N[C@H](C(=O)N[C@@H](CCC(=O)O)C(=O)N[C@@H](C)C(=O)N[C@@H](CC(C)C)C(=O)N[C@@H](CCCNC(=N)N)C(=O)N[C@H](C(=O)N[C@H](C(=O)N[C@@H](C)C(=O)O)[C@@H](C)CC)C(C)C)[C@@H](C)O [3324.1432] | 540 SFC/10^6 | 713 SFC/10^6 | 713 SFC/10^6 and 540 SFC/10^6 |  |  |  |
| CC[C@H](C)[C@H](NC(=O)[C@H](Cc1ccccc1)NC(=O)[C@H](CCCCN)NC(=O)[C@H](Cc1ccc(O)cc1)NC(=O)[C@@H](NC(=O)[C@H](CCC(=O)O)NC(=O)[C@H](Cc1ccc(O)cc1)NC(=O)[C@H](C)NC(=O)CN)[C@@H](C)O)C(=O)N1CCC[C@H]1C(=O)N[C@@H](CO)C(=O)N[C@@H](CC(C)C)C(=O)N[C@@H](CCC(=O)O)C(=O)N[C@@H](C)C(=O)N[C@@H](C)C(=O)O [3324.1433] | 247 SFC/10^6 | 208 SFC/10^6 and 153 SFC/10^6 | 247 SFC/10^6 and 208 SFC/10^6 and 153 SFC/10^6 |  |  |  |
| CC[C@H](C)[C@H](NC(=O)[C@H](C)NC(=O)[C@H](CCCCN)NC(=O)[C@H](CC(N)=O)NC(=O)[C@H](Cc1ccccc1)NC(=O)[C@H](C)NC(=O)CNC(=O)[C@H](CCC(=O)O)NC(=O)[C@H](Cc1ccccc1)NC(=O)[C@@H](NC(=O)[C@@H](NC(=O)[C@H](Cc1ccccc1)NC(=O)[C@H](CCCCN)NC(=O)[C@H](CC(=O)O)NC(=O)[C@@H](N)CC(N)=O)[C@@H](C)O)C(C)C)C(=O)O [3324.1442] | 400 SFC/10^6 | 93 SFC/10^6 | 400 SFC/10^6 and 93 SFC/10^6 |  |  |  |
| CC(C)[C@H](NC(=O)[C@H](Cc1ccccc1)NC(=O)[C@H](CO)NC(=O)[C@H](CC(=O)O)NC(=O)[C@H](Cc1ccccc1)NC(=O)[C@H](CCCCN)NC(=O)[C@H](C)NC(=O)[C@H](CCC(=O)O)NC(=O)[C@@H]1CCCN1C(=O)[C@@H](NC(=O)[C@H](C)N)[C@@H](C)O)C(=O)N[C@@H](C)C(=O)N[C@@H](C)C(=O)N[C@@H](Cc1ccccc1)C(=O)N[C@H](C(=O)O)[C@@H](C)O [3324.1570] | 238 SFC/10^6 | 80 SFC/10^6 and 117 SFC/10^6 | 238 SFC/10^6 and 80 SFC/10^6 and 117 SFC/10^6 |  |  |  |
| CC[C@H](C)[C@H](NC(=O)[C@@H](N)CC(=O)O)C(=O)N[C@@H](CC(N)=O)C(=O)N[C@H](C(=O)NCC(=O)N[C@@H](Cc1ccccc1)C(=O)N[C@@H](CCCCN)C(=O)N[C@@H](C)C(=O)N[C@@H](C)C(=O)N[C@H](C(=O)N[C@@H](C)C(=O)N[C@@H](C)C(=O)N[C@@H](C)C(=O)N[C@@H](C)C(=O)NCC(=O)O)C(C)C)C(C)C [3324.1571] | 397 SFC/10^6 and 1057 SFC/10^6 | 47 SFC/10^6 and 1183 SFC/10^6 | 397 SFC/10^6 and 47 SFC/10^6 and 1057 SFC/10^6 and 1183 SFC/10^6 |  |  |  |
| CC(C)[C@H](NC(=O)[C@H](C)NC(=O)[C@H](C)NC(=O)[C@H](CCCCN)NC(=O)[C@@H](N)Cc1ccccc1)C(=O)N[C@@H](C)C(=O)N[C@@H](C)C(=O)N[C@@H](C)C(=O)N[C@@H](C)C(=O)NCC(=O)N[C@@H](C)C(=O)N1CCC[C@H]1C(=O)N1CCC[C@H]1C(=O)N[C@@H](C)C(=O)N[C@@H](CC(=O)O)C(=O)O [3324.1575] | 138 SFC/10^6 and 327 SFC/10^6 | 230 SFC/10^6 | 138 SFC/10^6 and 327 SFC/10^6 and 230 SFC/10^6 |  |  |  |
| CC[C@H](C)[C@H](NC(=O)[C@H](CC(=O)O)NC(=O)[C@H](CCC(=O)O)NC(=O)[C@H](CCSC)NC(=O)[C@H](CC(C)C)NC(=O)[C@H](CCCCN)NC(=O)[C@@H](N)CCC(N)=O)C(=O)N[C@@H](CC(N)=O)C(=O)N[C@H](C(=O)NCC(=O)N[C@@H](Cc1ccccc1)C(=O)N[C@@H](CCCCN)C(=O)N[C@@H](C)C(=O)N[C@@H](C)C(=O)N[C@H](C(=O)O)C(C)C)C(C)C [3324.1580] | 107 SFC/10^6 | 317 SFC/10^6 and 283 SFC/10^6 | 317 SFC/10^6 and 390 SFC/10^6 |  |  |  |
| CC(C)C[C@H](NC(=O)[C@H](Cc1ccc(O)cc1)NC(=O)[C@H](C)NC(=O)[C@H](CCC(=O)O)NC(=O)[C@@H](NC(=O)[C@H](C)NC(=O)[C@H](CCCCN)NC(=O)[C@H](Cc1ccccc1)NC(=O)[C@@H](NC(=O)[C@H](CCC(=O)O)NC(=O)[C@H](CO)NC(=O)[C@H](C)N)C(C)C)C(C)C)C(=O)N[C@H](C(=O)N[C@@H](C)C(=O)N[C@@H](Cc1c[nH]cn1)C(=O)O)C(C)C [3324.1584] |  |  |  | 207 SFC/10^6 and 890 SFC/10^6 and 97 SFC/10^6 | 143 SFC/10^6 | 207 SFC/10^6 and 1033 SFC/10^6 and 97 SFC/10^6 |
